# Measured values: US4383113A, “Agricultural sulfonamides” (E. I. Du Pont de Nemours and Company, priority 1981, dated 1983)
# Tests used:
# Set-up in all cases: key: 0 = no effect, 10 = maximum effect; letter = response symbol
# cassia [1] = test: Test A post-emergence; format: in vivo, Cassia tora; conditions: 0.4 kg/ha
# Text: (§1) The activity of these compounds was discovered in a number of greenhouse and field tests. The ratings are based on a numerical scale extending from 0=no effect, to 10=maximum effect. The accompanying descriptive symbols have the following meanings:
# (§2) Seeds of crabgrass (Digitaria spp.), barnyardgrass (Echinochloa crusgalli), wild oats (Avena fatua), cassia (Cassia tora), morningglory (Ipomoea spp.), cocklebur (Xanthium spp.), sorghum, corn, soybean, rice, wheat and nutsedge tubers (Cyperus rotundus) were planted in a growth medium and treated preemergence with a nonphytotoxic solvent solution of the compounds of Table XII. Other batches of seeds and tubers for all of the foregoing weed and crop plants were planted at the same time as controls. The control plantings were untreated; i.e., neither any compound nor any solvent was applied. At the same time, cotton having five leaves (including cotyledonary ones), bush beans with the third trifoliate leaf expanding, crabgrass with two leaves, barnyardgrass with two leaves, wild oats with two leaves, cassia with three leaves (including cotyledonary ones), morningglory with four leaves (including the cotyledonary ones), cocklebur with four leaves (including the cotyledonary ones), sorghum with four leaves, corn with four leaves, soybean with two cotyledonary leaves, rice with three leaves, wheat with one leaf, and nutsedge with three-five leaves were sprayed with a nonphytotoxic solvent solution of the compounds of Table XII. Other groups of all the same weed and crop plants were sprayed with the same nonphytotoxic solvent so as to provide control plants. Preemergence and postemergence treated plants and controls were maintained in a greenhouse for sixteen days, then all treated plants were compared with their respective controls and rated visually for response to treatment.
# nutsedge = test: Test A post-emergence; format: in vivo, Cyperus rotundus; conditions: 0.4 kg/ha
# Text: as §1, §2
# crabgrass [2] = test: Test A post-emergence; format: in vivo, Digitaria spp.; conditions: 0.4 kg/ha
# Text: as §1, §2
# soybean [3] = test: Test A post-emergence; format: in vivo; conditions: 0.4 kg/ha
# Text: as §1, §2
# wild oats [4] = test: Test A post-emergence; format: in vivo, Avena fatua; conditions: 0.4 kg/ha
# Text: as §1, §2
# barnyardgrass [5] = test: Test A post-emergence; format: in vivo, Echinochloa crusgalli; conditions: 0.4 kg/ha
# Text: as §1, §2
# wheat [6] = test: Test A post-emergence; format: in vivo; conditions: 0.4 kg/ha
# Text: as §1, §2
# corn [7] = test: Test A post-emergence; format: in vivo; conditions: 0.4 kg/ha
# Text: as §1, §2
# morningglory [8] = test: Test A post-emergence; format: in vivo, Ipomoea spp.; conditions: 0.4 kg/ha
# Text: as §1, §2
# cocklebur [9] = test: Test A post-emergence; format: in vivo, Xanthium spp.; conditions: 0.4 kg/ha
# Text: as §1, §2
# sorghum [10] = test: Test A post-emergence; format: in vivo; conditions: 0.4 kg/ha
# Text: as §1, §2
# bush bean = test: Test A post-emergence; format: in vivo, bush beans; conditions: 0.4 kg/ha
# cassia [11] = test: Test A pre-emergence; format: in vivo, Cassia tora
# Text: as §1, §2
# cocklebur [12] = test: Test A pre-emergence; format: in vivo, Xanthium spp.
# Text: as §1, §2
# wheat [13] = test: Test A pre-emergence; format: in vivo
# Text: as §1, §2
# soybean [14] = test: Test A pre-emergence; format: in vivo
# Text: as §1, §2
# morningglory [15] = test: Test A pre-emergence; format: in vivo, Ipomoea spp.
# Text: as §1, §2
# crabgrass [16] = test: Test A pre-emergence; format: in vivo, Digitaria spp.
# Text: as §1, §2
# barnyardgrass [17] = test: Test A pre-emergence; format: in vivo, Echinochloa crusgalli
# Text: as §1, §2
# sorghum [18] = test: Test A pre-emergence; format: in vivo
# Text: as §1, §2
# wild oats [19] = test: Test A pre-emergence; format: in vivo, Avena fatua; conditions: 0.4 kg/ha
# Text: as §1, §2
# corn [20] = test: Test A pre-emergence; format: in vivo
# Text: as §1, §2
SMILES,response rating (soybean [3]) [C],response rating (cassia [11]; 0.4 kg/ha) [G],response rating (cocklebur [12]; 0.4 kg/ha),response rating (wheat [13]; 0.4 kg/ha),response rating (soybean [14]; 0.4 kg/ha) [H],response rating (morningglory [15]; 0.4 kg/ha),response rating (crabgrass [16]; 0.4 kg/ha),response rating (barnyardgrass [17]; 0.4 kg/ha) [H],response rating (sorghum [18]; 0.4 kg/ha),response rating (wild oats [19]),other results
COC(=O)c1ccccc1S(=O)(=O)NC(=O)N(C)c1nc(C)cc(C)n1 [drawing 419],3,–,–,–,–,–,–,–,–,–,response rating (cassia [1]): 2C; response rating (nutsedge): 7G; response rating (crabgrass [2]): 7G; response rating (wild oats [4]): 6C; response rating (barnyardgrass [5]): 9C
CCC(C)OC(=O)c1ccccc1S(=O)(=O)NC(=O)Nc1nc(OC)cc(OC)n1 (stereo not drawn) [drawing 423],9,–,–,–,–,–,–,–,–,–,response rating (nutsedge): 7G; response rating (crabgrass [2]): 2A; response rating (wheat [6]): 1C; response rating (corn [7]): 9H; response rating (morningglory [8]): 9C; response rating (wild oats [4]): 2C; response rating (barnyardgrass [5]): 9C
COc1nc(C)nc(NC(=O)NS(=O)(=O)c2ccccc2C(=O)OC2CCCC2)n1 [drawing 445],9,–,–,–,–,–,–,–,–,–,response rating (nutsedge): 7G; response rating (crabgrass [2]): 1C; response rating (cocklebur [9]): 9C; response rating (wheat [6]): 1C; response rating (sorghum [10]): 8G; response rating (bush bean): 8C; response rating (morningglory [8]): 10C; response rating (wild oats [4]): 1C
COc1cc(C)nc(NC(=O)NS(=O)(=O)c2ccccc2C(=O)OC2CCOC2)n1 (stereo not drawn) [drawing 446],9,–,–,–,–,–,–,–,–,–,response rating (wheat [6]): 7C; response rating (sorghum [10]): 9C; response rating (bush bean): 9C; response rating (morningglory [8]): 9C; response rating (wild oats [4]): 7G; response rating (barnyardgrass [5]): 9C
CCCC(OC(=O)c1ccccc1S(=O)(=O)NC(=O)Nc1nc(C)nc(OC)n1)C(C)C (stereo not drawn) [drawing 458],9,–,–,–,–,–,–,–,–,–,response rating (cassia [1]): 9C; response rating (crabgrass [2]): 3C; response rating (cocklebur [9]): 10C; response rating (corn [7]): 9C; response rating (bush bean): 9C; response rating (morningglory [8]): 10C; response rating (barnyardgrass [5]): 9C
COc1cc(C)nc(NC(=O)NS(=O)(=O)c2ccccc2C(=O)NC(C)C)n1 [drawing 463],9,–,–,–,–,–,–,–,–,–,response rating (cassia [1]): 9C; response rating (nutsedge): 9C; response rating (crabgrass [2]): 10C; response rating (cocklebur [9]): 9C; response rating (sorghum [10]): 9C; response rating (morningglory [8]): 10C; response rating (wild oats [4]): 9C; response rating (barnyardgrass [5]): 9C
CCCCCCCCCCCCNC(=O)c1ccccc1S(=O)(=O)NC(=O)Nc1nc(C)nc(OC)n1 [drawing 467],9,–,–,–,–,–,–,–,–,–,response rating (nutsedge): 9G; response rating (morningglory [8]): 9C
COC(=O)c1ccccc1S(=O)(=O)NC(=O)Nc1nc(C)cc(C)n1 [drawing 479],–,8,9G,9H,9,9G,9G,9,–,–,response rating (cassia [11]; 2 kg/ha): 9G; response rating (cocklebur [12]; 2 kg/ha): 9G; response rating (wheat [13]; 2 kg/ha): 9H; response rating (soybean [14]; 2 kg/ha): 9H; response rating (morningglory [15]; 2 kg/ha): 9G; response rating (crabgrass [16]; 2 kg/ha): 9G; response rating (barnyardgrass [17]; 2 kg/ha): 9H
COC(=O)c1ccccc1S(=O)(=O)NC(=O)Nc1nc(C)nc(OC)n1 [drawing 482],–,9,9G,9H,9,9H,–,9,9H,9H,–
CCC(C)OC(=O)c1ccccc1S(=O)(=O)NC(=O)Nc1nc(OC)cc(OC)n1 (stereo not drawn) [drawing 490],–,8,9G,2G,8,9G,0,9,9G,8G,–
CCC(C)OC(=O)c1ccccc1S(=O)(=O)NC(=O)Nc1nc(C)cc(OC)n1 (stereo not drawn) [drawing 491],–,9,–,9G,9,9G,6G,9,9H,–,–
COC(=O)c1cc(Cl)ccc1S(=O)(=O)NC(=O)Nc1nc(C)cc(OC)n1 [drawing 501],–,–,9H,8H,9,9G,–,9,9H,9G,–
COC(=O)c1cc(Cl)ccc1S(=O)(=O)NC(=O)Nc1nc(OC)nc(OC)n1 [drawing 502],–,–,9G,1C,9,9G,1C,–,9H,8G,–
COc1cc(OC)nc(NC(=O)NS(=O)(=O)c2ccccc2C(=O)OC(C)C)n1 [drawing 503],–,–,–,7G,–,9G,8G,–,–,7G,–
COc1cc(C)nc(NC(=O)NS(=O)(=O)c2ccccc2C(=O)OC(C)C)n1 [drawing 504],–,–,–,9G,–,9H,8G,–,–,8G,–
COc1nc(NC(=O)NS(=O)(=O)c2ccccc2C(=O)OC(C)C)nc(OC)n1 [drawing 505],–,–,–,7G,–,–,7G,–,–,8G,–
CCOC(=O)c1ccccc1S(=O)(=O)NC(=O)Nc1nc(OC)cc(OC)n1 [drawing 508],–,–,–,–,–,–,–,–,–,–,response rating (cassia [11]; 2 kg/ha): 9G; response rating (cocklebur [12]; 2 kg/ha): 9G; response rating (wheat [13]; 2 kg/ha): 9H; response rating (sorghum [18]; 2 kg/ha): 10H; response rating (soybean [14]; 2 kg/ha): 9H; response rating (crabgrass [16]; 2 kg/ha): 9H; response rating (barnyardgrass [17]; 2 kg/ha): 9H
CCOC(=O)c1ccccc1S(=O)(=O)NC(=O)Nc1nc(OC)cc(OC)n1 [drawing 509],–,9,9G,9H,9,–,–,9,9H,9G,–
Cc1cc(C)nc(NC(=O)NS(=O)(=O)c2ccccc2C(=O)O)n1 [drawing 510],–,–,–,–,–,–,–,–,–,–,response rating (corn [20]; 2 kg/ha): 3G
C=CCOC(=O)c1ccccc1S(=O)(=O)NC(=O)Nc1nc(C)nc(OC)n1 [drawing 518],–,9,9G,9H,9,9G,9H,9,10H,–,–
COc1cc(C)nc(NC(=O)NS(=O)(=O)c2ccccc2C(=O)OCCOc2ccccc2)n1 [drawing 528],–,–,9G,9H,9,9C,–,–,–,–,response rating (corn [20]; 0.4 kg/ha): 9G
COC(=O)c1ccccc1S(=O)(=O)NC(=O)Nc1nc(OC)nc(OCC(F)(F)F)n1 [drawing 540],–,9,9G,6G,9,9G,2G,–,–,–,–
COc1cc(C)nc(NC(=O)NS(=O)(=O)c2ccccc2C(=O)OC(C)CCl)n1 (stereo not drawn) [drawing 545],–,9,9G,9H,9,9G,–,–,–,–,response rating (corn [20]; 0.4 kg/ha): 9H
